In patent US20100234377A1 (priority 2007, published 2010):
Like-named read-outs stand apart in the source and are kept apart here.

Assays:
[1] = target: T1, human Prostaglandin D Synthase (GST2) (Homo sapiens, UniProt O60760); test: Homogeneous biochemical assay of human Prostaglandin D Synthase (GST2) based on its glutathion-S-transferase activity (GSH conjugation to monochlorobimane, fluorescence)
T1 construct: the open reading frame of human Prostaglandin D Synthase was amplified from cDNA; made in house; host or cells: E. coli TOP10F'
T1 sequence (O60760 whole entry): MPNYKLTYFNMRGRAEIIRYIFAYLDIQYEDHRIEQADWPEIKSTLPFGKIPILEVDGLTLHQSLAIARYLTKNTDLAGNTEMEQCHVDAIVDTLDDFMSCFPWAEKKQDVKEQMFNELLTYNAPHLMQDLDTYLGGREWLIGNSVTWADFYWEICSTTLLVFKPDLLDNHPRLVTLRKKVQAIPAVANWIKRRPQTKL
Procedure, shortened: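 N-His-tagged human PGD synthase from E. coli, assayed via its GST activity: GSH conjugation to monochlorobimane in 50 mM MES/KOH pH 6.1, 0.7 mM GSH, 2 mM MgCl2. Compounds at final picomolar to triple-digit micromolar concentrations.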

[2] = Mouse microsomal metabolism assay; type: in vitro ADME; conditions: mouse hepatic microsomes, 37° C., phosphate buffer pH 7.4, NADPH regenerating system; for half-life: liver microsomes, read-out: Mouse t½
Procedure: Selected GST2 Inhibitors from Formula I Assessed in Mouse Microsomal Metabolism Assay
Selected GST2 inhibitors of General Formula (I) were screened in a mouse hepatic microsome assay to determine microsomal metabolism.
Test Articles were prepared in 50% acetonitrile.
Mouse hepatic microsomes supplied by BD GenTest Inc or an equivalent reputable supplier.
Test Articles are added to incubation plates containing phosphate buffer pH 7.4 and microsomes at a suitable protein concentration. Incubation plates are placed on a shaking water bath at 37° C. for 5 minutes pre-incubation. An aliquot of the reaction mixture is taken and added to acetonitrile (3:1). This is designated time […]. NADPH regenerating system in phosphate buffer pH 7.4 is added to initiate reactions. Aliquots from the incubation wells are taken at a number of time points and added to acetonitrile. Control incubations contained no microsomes or compounds with known microsomal stabilities. Samples were subject to centrifugation to remove denatured protein and the supernatants were analysed by LCMS.
Half lives were calculated from the log vs time transformed data according to the following equation: […]
Where λ is the slope of the linear regression line under first order (Test Article concentration <Km) conditions.

[3] = target: K+ATP channel (Rattus norvegicus, UniProt Q09429); test: KATP channel receptor binding assay ([3H]glibenclamide); conditions: Table 1; 10 μM compound concentration; [3H]glibenclamide 0.1 nM, rat cerebral cortex; read-out: K^+ATP Channel (% Inhibition of Control Specific Binding)
Sequence of K+ATP channel (Q09429 whole entry): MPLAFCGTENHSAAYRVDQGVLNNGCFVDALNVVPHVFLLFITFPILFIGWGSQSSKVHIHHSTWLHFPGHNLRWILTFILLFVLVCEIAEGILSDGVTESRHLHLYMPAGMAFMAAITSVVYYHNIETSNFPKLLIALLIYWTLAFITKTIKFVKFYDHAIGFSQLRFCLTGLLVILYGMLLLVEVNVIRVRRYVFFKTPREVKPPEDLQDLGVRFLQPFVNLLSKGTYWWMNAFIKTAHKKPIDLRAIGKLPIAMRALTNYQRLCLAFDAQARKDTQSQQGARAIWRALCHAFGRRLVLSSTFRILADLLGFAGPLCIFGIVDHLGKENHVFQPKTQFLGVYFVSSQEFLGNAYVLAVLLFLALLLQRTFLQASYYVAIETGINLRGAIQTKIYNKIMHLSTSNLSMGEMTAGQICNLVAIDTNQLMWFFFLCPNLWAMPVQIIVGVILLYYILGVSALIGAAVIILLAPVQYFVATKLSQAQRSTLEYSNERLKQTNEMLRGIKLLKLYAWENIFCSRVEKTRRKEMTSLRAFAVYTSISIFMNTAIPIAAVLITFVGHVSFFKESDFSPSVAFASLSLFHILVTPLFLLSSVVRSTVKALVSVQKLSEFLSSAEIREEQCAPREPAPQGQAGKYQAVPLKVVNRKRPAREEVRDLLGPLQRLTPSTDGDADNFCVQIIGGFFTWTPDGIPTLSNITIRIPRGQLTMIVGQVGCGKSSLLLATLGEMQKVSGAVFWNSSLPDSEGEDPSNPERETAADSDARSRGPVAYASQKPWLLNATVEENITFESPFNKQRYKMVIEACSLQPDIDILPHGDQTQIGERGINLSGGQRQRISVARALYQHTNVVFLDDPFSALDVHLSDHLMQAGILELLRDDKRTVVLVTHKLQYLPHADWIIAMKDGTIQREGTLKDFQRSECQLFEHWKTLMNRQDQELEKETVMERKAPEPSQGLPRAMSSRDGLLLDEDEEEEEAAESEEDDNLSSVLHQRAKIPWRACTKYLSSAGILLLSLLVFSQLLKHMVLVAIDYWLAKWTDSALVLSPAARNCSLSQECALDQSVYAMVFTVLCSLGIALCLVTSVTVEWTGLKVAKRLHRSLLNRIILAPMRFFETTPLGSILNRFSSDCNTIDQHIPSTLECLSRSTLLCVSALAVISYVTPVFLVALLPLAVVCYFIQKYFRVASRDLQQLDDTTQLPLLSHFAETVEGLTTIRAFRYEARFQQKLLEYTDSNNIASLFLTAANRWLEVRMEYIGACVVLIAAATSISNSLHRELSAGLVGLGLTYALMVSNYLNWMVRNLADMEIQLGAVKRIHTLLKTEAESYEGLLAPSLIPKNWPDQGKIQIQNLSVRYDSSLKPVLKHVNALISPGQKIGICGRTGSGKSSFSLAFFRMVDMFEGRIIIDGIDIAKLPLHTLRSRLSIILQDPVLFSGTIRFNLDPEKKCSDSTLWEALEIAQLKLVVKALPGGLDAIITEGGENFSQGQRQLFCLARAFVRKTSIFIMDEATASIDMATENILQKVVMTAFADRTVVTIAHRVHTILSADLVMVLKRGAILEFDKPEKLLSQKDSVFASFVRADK
Sequence of K+ATP channel (P70673 whole entry partner): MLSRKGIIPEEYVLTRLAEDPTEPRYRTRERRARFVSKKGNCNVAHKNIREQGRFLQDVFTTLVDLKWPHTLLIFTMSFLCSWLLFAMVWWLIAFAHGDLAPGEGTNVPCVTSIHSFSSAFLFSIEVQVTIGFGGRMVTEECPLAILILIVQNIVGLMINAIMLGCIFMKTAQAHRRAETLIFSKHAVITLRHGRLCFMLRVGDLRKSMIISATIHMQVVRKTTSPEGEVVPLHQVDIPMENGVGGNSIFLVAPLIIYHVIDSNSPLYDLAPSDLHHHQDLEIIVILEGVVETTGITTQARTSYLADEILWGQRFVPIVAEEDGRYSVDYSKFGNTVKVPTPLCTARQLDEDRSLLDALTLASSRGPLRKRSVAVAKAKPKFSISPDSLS
Procedure: KATP Channel Mediated Binding Assay
The compounds of Comparative Examples I to XII and Compounds 59, 30, 22, 76 and 69 were tested for their effects in an in vitro receptor binding KATP channel assay.
The specific ligand binding to the receptor is defined as the difference between the total binding and the non-specific binding determined in the presence of an excess of unlabelled ligand. The results are expressed as a percent inhibition of control specific binding obtained in the presence of the test compounds.
In each experiment, the respective reference compound was tested concurrently with the test compounds in order to assess the assay suitability. It was tested at several concentrations (for IC50 value determination), and the data were compared with historical values.

[4] = given beside the compound name in Examples 1 to 167, read-out: Potency Range (GST2 IC50)
[5] = Table 1, read-out: GST2 IC50 Range

Question: With `O=C(Nc1ccc(N2CCOCC2)nc1)N1CCN(C(=O)c2cccc(F)c2)CC1` [Compound 154, 4-(3-Fluoro-benzoyl)-piperazine-1-carboxylic acid (6-morpholin-4-yl-pyridin-3-yl)-amide] as the molecule, how does the IC50 [1, 4] read?
Answer: Its IC50 is 11 to 100 nM.

Question: And the half-life [2]?
Answer: The half-life was > 60 min.

Question: Which half-life [2] does the source give for `O=C(Nc1ccc(F)cc1)N1CCN(C(=O)c2cccc(F)n2)CC1` [XXIII, 4-(6-Fluoro-pyridine-2-carbonyl)-piperazine-1-carboxylic acid (4-fluoro-phenyl)-amide] here?
Answer: Its half-life is > 60 min.

Question: Which results are given for `O=C(Nc1ccc(Cl)nc1)N1CCN(C(=O)c2cccc(F)c2)CC1` [Compound 63, 4-(3-Fluoro-benzoyl)-piperazine-1-carboxylic acid (6-chloro-pyridin-3-yl)-amide]?
Answer: IC50 [1, 4]: 101 to 1000 nM; half-life [2]: > 60 min

Question: For `O=C(Nc1ccc(N2CCOCC2)nc1)N1CCN(Cc2ccccc2)CC1` [XXV, 4-Benzyl-piperazine-1-carboxylic acid (6-morpholin-4-yl-pyridin-3-yl)-amide], which half-life [2] is on record?
Answer: The half-life was 27.6 min.

Question: Which IC50 [1, 4] does the source give for `CN1CCN(c2ccc(NC(=O)N3CCN(C(=O)c4cccc(F)c4)CC3)cc2F)CC1` [Compound 60, 4-(3-Fluoro-benzoyl)-piperazine-1-carboxylic acid [3-fluoro-4-(4-methyl-piperazin-1-yl)-phenyl]-amide] here?
Answer: The IC50 was 101 to 1000 nM.

Question: What about the half-life [2] of the same molecule?
Answer: The half-life was 58.7 min.

Question: With `O=C(Nc1cc(Cl)cc(Cl)c1)N1CCN(C(=O)c2ccccc2)CC1` [Compound VII, 4-Benzoyl-piperazine-1-carboxylic acid (3,5-dichloro-phenyl)-amide, reference compound] as the molecule, how does the IC50 [1, 5] read?
Answer: Its IC50 is 11 to 100 nM.

Question: What about the inhibition at 10 µM [3] of the same molecule?
Answer: Its inhibition at 10 µM is -10%.

Question: For `O=C(Nc1ccc(F)cc1)N1CCN(C(=O)c2cccc(F)c2)CC1` [Compound 155, 4-(3-Fluoro-benzoyl)-piperazine-1-carboxylic acid (4-fluoro-phenyl)-amide], which IC50 [1, 4] is on record?
Answer: The IC50 was 101 to 1000 nM.

Question: And the half-life [2]?
Answer: Its half-life is 59.4 min.

Question: Which IC50 [1, 4] does the source give for `O=C(Nc1cccc(NC(=O)N2CCN(C(=O)c3cccc(F)c3)CC2)c1)c1ccc[n+]([O-])c1` [Compound 109, 4-(3-Fluoro-benzoyl)-piperazine-1-carboxylic acid {3-[(1-oxy-pyridine-3-carbonyl)-amino]-phenyl}-amide] here?
Answer: The IC50 was 101 to 1000 nM.

Question: What about the half-life [2] of the same molecule?
Answer: The half-life was > 60 min.

Question: Which half-life [2] does the source give for `O=C(Nc1ccc(F)cc1)N1CCN(Cc2cccc(F)c2)CC1` [XXX, 4-(3-Fluoro-benzyl)-piperazine-1-carboxylic acid (4-fluoro-phenyl)-amide] here?
Answer: The half-life was 10.6 min.

Question: Which results are given for `O=C(c1ccccc1)N1CCN(C(=S)Nc2cc(C(F)(F)F)cc(C(F)(F)F)c2)CC1` [Compound IX, 4-Benzoyl-piperazine-1-carbothioic acid (3,5-bis-trifluoromethyl-phenyl)-amide, reference compound]?
Answer: IC50 [1, 5]: 101 to 1000 nM; inhibition at 10 µM [3]: 10%

Question: Which results are given for `O=C(Nc1ccc(C(=O)N2CCOCC2)cc1)N1CCN(C(=O)c2cccc(F)c2)CC1` [Compound 101, 4-(3-Fluoro-benzoyl)-piperazine-1-carboxylic acid [4-(morpholine-4-carbonyl)-phenyl]-amide]?
Answer: IC50 [1, 4]: 101 to 1000 nM; half-life [2]: > 60 min

Question: For `O=C(Nc1ccc(OC(F)(F)F)cc1)N1CCN(C(=O)c2cccc(F)n2)CC1` [Compound 21, 4-(6-Fluoro-pyridine-2-carbonyl)-piperazine-1-carboxylic acid (4-trifluoromethoxy-phenyl)-amide], which IC50 [1, 4] is on record?
Answer: Its IC50 is 101 to 1000 nM.

Question: And the half-life [2]?
Answer: The half-life was > 60 min.

Question: With `O=C(Nc1ccc(F)cc1)N1CCN(Cc2cccc3c2OC(F)(F)O3)CC1` [XXIX, 4-(2,2-Difluoro-benzo[1,3]dioxol-4-ylmethyl)-piperazine-1-carboxylic acid (4-fluoro-phenyl)-amide] as the molecule, how does the half-life [2] read?
Answer: Its half-life is 12.1 min.

Question: With `Cc1ccccc1CN1CCN(C(=O)Nc2ccc(F)cc2)CC1` [XXXI, 4-(2-Methyl-benzyl)-piperazine-1-carboxylic acid (4-fluoro-phenyl)-amide] as the molecule, how does the half-life [2] read?
Answer: Its half-life is 4.4 min.

Question: For `O=C(c1ccco1)N1CCN(C(=S)Nc2cc(C(F)(F)F)cc(C(F)(F)F)c2)CC1` [Compound VI, 4-(Furan-2-carbonyl)-piperazine-1-carbothioic acid (3,5-bis-trifluoromethyl-phenyl)-amide], which inhibition at 10 µM [3] is on record?
Answer: The inhibition at 10 µM was 4%.

Question: For “4-(2-Fluoro-4-{[4-(3-fluoro-benzoyl)-piperazine-1-carbonyl]-amino}-phenyl)-piperazine-1-carboxylic acid isopropyl ester [Compound 50]”, which IC50 [1, 4] is on record?
Answer: The IC50 was 11 to 100 nM.

Question: What about the “Mouse t½” value [2] of the same molecule?
Answer: The value was >60 min.

Question: For `O=C(Nc1ccc(NC(=O)N2CCN(C(=O)c3cccc(F)c3)CC2)cc1)c1ccncc1` [Compound 123, 4-(3-Fluoro-benzoyl)-piperazine-1-carboxylic acid {4-[(pyridine-4-carbonyl)-amino]-phenyl}-amide], which IC50 [1, 4] is on record?
Answer: Its IC50 is 101 to 1000 nM.

Question: And the half-life [2]?
Answer: Its half-life is > 60 min.

Question: For `O=C(Nc1ccc(N2CCOCC2)nc1)N1CCN(Cc2cccc(F)c2)CC1` [XXIV, 4-(3-Fluoro-benzyl)-piperazine-1-carboxylic acid (6-morpholin-4-yl-pyridin-3-yl)-amide], which half-life [2] is on record?
Answer: The half-life was 31.4 min.

Question: Which IC50 [1, 4] does the source give for `Cc1ccccc1C(=O)N1CCN(C(=O)Nc2ccc(F)cc2)CC1` [Compound 156, 4-(2-Methyl-benzoyl)-piperazine-1-carboxylic acid (4-fluoro-phenyl)-amide] here?
Answer: The IC50 was 101 to 1000 nM.

Question: What about the half-life [2] of the same molecule?
Answer: The half-life was 31.4 min.

Question: With `O=C(Nc1nc2cc(Cl)ccc2o1)N1CCN(C(=O)c2cccc(F)c2)CC1` [Compound 39, 4-(3-Fluoro-benzoyl)-piperazine-1-carboxylic acid (5-chloro-benzooxazol-2-yl)-amide] as the molecule, how does the IC50 [1, 4] read?
Answer: The IC50 was 101 to 1000 nM.

Question: And the half-life [2]?
Answer: The half-life was > 60 min.

Question: For `NC(=O)c1ccc(NC(=O)N2CCN(C(=O)c3cccc(F)c3)CC2)cc1` [Compound 105, 4-(3-Fluoro-benzoyl)-piperazine-1-carboxylic acid (4-carbamoyl-phenyl)-amide], which IC50 [1, 4] is on record?
Answer: Its IC50 is 101 to 1000 nM.

Question: And the half-life [2]?
Answer: Its half-life is > 60 min.

Question: Which half-life [2] does the source give for `O=C(Nc1ccc(N2CCOCC2)nc1)N1CCN(Cc2cc(F)cc(F)c2)CC1` [XXVIII, 4-(3,5-Difluoro-benzyl)-piperazine-1-carboxylic acid (6-morpholin-4-yl-pyridin-3-yl)-amide] here?
Answer: Its half-life is 15.5 min.

Question: For `CS(=O)(=O)Nc1ccc(NC(=O)N2CCN(C(=O)c3cccc(F)c3)CC2)cc1` [Compound 126, 4-(3-Fluoro-benzoyl)-piperazine-1-carboxylic acid (4-methanesulfonylamino-phenyl)-amide], which IC50 [1, 4] is on record?
Answer: The IC50 was 101 to 1000 nM.

Question: And the half-life [2]?
Answer: The half-life was > 60 min.

Question: With `CC(C)NC(=O)N1CCN(c2ccc(NC(=O)N3CCN(C(=O)c4cccc(F)c4)CC3)cc2F)CC1` [Compound 52, 4-(3-fluorobenzoyl)-N-{3-fluoro-4-[4-(isopropylcarbamoyl)piperazin-1-yl]phenyl}piperazine-1-carboxamide] as the molecule, how does the IC50 [1, 4] read?
Answer: Its IC50 is 11 to 100 nM.

Question: What about the half-life [2] of the same molecule?
Answer: Its half-life is > 60 min.

Question: With `O=C(Nc1ccc(F)cc1)N1CCN(Cc2ccccc2O)CC1` [XXVI, 4-(2-Hydroxy-benzyl)-piperazine-1-carboxylic acid (4-fluoro-phenyl)-amide] as the molecule, how does the half-life [2] read?
Answer: The half-life was 21.9 min.

Question: Which half-life [2] does the source give for `O=C(Nc1ccc(N2CCNCC2)c(F)c1)N1CCN(Cc2cccc(F)n2)CC1` [XXVII, 4-(6-Fluoro-pyridin-2-ylmethyl)-piperazine-1-carboxylic acid (3-fluoro-4-piperazin-1-yl-phenyl)-amide] here?
Answer: Its half-life is 20.9 min.

Question: Which IC50 [1, 4] does the source give for `O=C(Nc1cccc(NC(=O)N2CCN(C(=O)c3cccc(F)c3)CC2)c1)c1ccc(F)nc1` [Compound 111, 4-(3-Fluoro-benzoyl)-piperazine-1-carboxylic acid {3-[(6-fluoro-pyridine-3-carbonyl)-amino]-phenyl}-amide] here?
Answer: Its IC50 is 101 to 1000 nM.

Question: Which IC50 [1, 4] does the source give for `CC(=O)N1CCN(c2ccc(NC(=O)N3CCN(C(=O)c4cccc(F)c4)CC3)cc2)CC1` [Compound 61] here?
Answer: The IC50 was 101 to 1000 nM.

Question: Which IC50 [1, 4] does the source give for `O=C(Nc1cccc(N2CCOCC2)c1)N1CCN(C(=O)c2cccc(F)c2)CC1` [Compound 31, 4-(3-Fluoro-benzoyl)-piperazine-1-carboxylic acid (3-morpholin-4-yl-phenyl)-amide] here?
Answer: The IC50 was 101 to 1000 nM.

Question: With `Nc1ccc(NC(=O)N2CCN(C(=O)c3cccc(F)c3)CC2)cc1` [Compound 112, 4-(3-Fluoro-benzoyl)-piperazine-1-carboxylic acid (4-amino-phenyl)-amide] as the molecule, how does the IC50 [1, 4] read?
Answer: Its IC50 is 101 to 1000 nM.

Question: For `O=C(Nc1cnc2ccccc2c1)N1CCN(C(=O)c2cccc(F)c2)CC1` [Compound 45, 4-(3-Fluoro-benzoyl)-piperazine-1-carboxylic acid quinolin-3-ylamide], which IC50 [1, 4] is on record?
Answer: Its IC50 is 101 to 1000 nM.

Question: For `CCOC(=O)c1ccc(NC(=O)N2CCN(C(=O)c3cccc(F)c3)CC2)cc1` [Compound 33, 4-{[4-(3-Fluoro-benzoyl)-piperazine-1-carbonyl]-amino}-benzoic acid ethyl ester], which IC50 [1, 4] is on record?
Answer: The IC50 was 101 to 1000 nM.
